Reference: US8883829B2, “2-phenyl-1,2,3-benzotriazoles for UV radiation absorbance” (DSM IP Assets B.V., priority 2010, dated 2014)
Like-named read-outs stand apart in the source and are kept apart here.

Assays:
[1] = 7 days
Description: (§1) 1.5 g of a cosmetic solvent (Capric/Caprylic Triglyceride (Mygliol 318) and C12-15 Alkylbenzoate (Finsolv TN)) is saturated with the respective Benzotriazol-derivative by adding 0.2 g portions while stirring at room temperature. The saturated solution is stirred for 7 days at room temperature. 1 ml of the supernatant is centrifuged and filtered in order to obtain a clear solution. The concentration of the Benzotriazol-derivative is determined by means of HPLC.

[2] = Determination of the solubility in cosmetic solvents; details: saturated solution stirred 7 days at room temperature, HPLC; for solubility Finsolv TN: C12-15 Alkylbenzoate; for solubility Myritol 318: Capric/Caprylic Triglyceride
Description: as §1

CCCCC(CC)COCc1cc(C)cc(-n2nc3ccccc3n2)c1O (stereo not drawn) [Example 2, 2-(2H-Benzotriazol-2-yl)-6-(2-ethylhexyloxymethyl)-4-methyl-phenol]
solubility Finsolv TN [1]: 64%
solubility Myritol 318 [1]: 66%

CCCCC(CC)COCc1cc(C)cc(-n2nc3ccc(Cl)cc3n2)c1O (stereo not drawn) [Example 12, 2-(5-Chloro-benzotriazol-2-yl)-6-(2-ethylhexyloxymethyl)-4-methyl-phenol]
solubility Finsolv TN [2]: 19%
solubility Myritol 318 [2]: 12%

Cc1cc(COCCC(C)C)c(O)c(-n2nc3ccccc3n2)c1 [Example 6, 2-(2H-Benzotriazol-2-yl)-6-(3-methyl-butoxymethyl)-4-methyl-phenol]
solubility Finsolv TN [2]: 37%
solubility Myritol 318 [2]: 36%

Cc1cc(CO)c(O)c(-n2nc3ccccc3n2)c1 [Example 14, 2-(2H-Benzotriazol-2-yl)-6-hydroxymethyl-4-methyl-phenol]
solubility Finsolv TN [2]: 0.02%
solubility Myritol 318 [2]: 0.01%

CCCCC(CC)C(=O)OCc1cc(C)cc(-n2nc3ccccc3n2)c1O (stereo not drawn) [Example 8, 2-Ethyl-hexanoic acid 3-(2H-benzotriazol-2-yl)-2-hydroxy-5-methyl-benzyl ester]
solubility Finsolv TN [2]: 42%
solubility Myritol 318 [2]: 24%

Cc1cc(COC(=O)CC(C)C)c(O)c(-n2nc3ccccc3n2)c1 [Example 9, 3-Methyl-butyric acid 3-(2H-benzotriazol-2-yl)-2-hydroxy-5-methyl-benzyl ester]
solubility Finsolv TN [2]: 8%
solubility Myritol 318 [2]: 6%
